{"source": "patent US6730332B2", "about": "“Herbal composition having antiallergic properties and a process for the preparation thereof” (Natural Remedies Pvt. Ltd., priority 2000, dated 2004)", "key": {"mast cells": {"tested_on": "mast cells", "test": "mast cell stabilization bioassay", "type": "cell-based, rats", "description": "The present invention is based on our experience and knowledge about the usage of various herbs along with our in depth studies on traditional literature. For this project a number of plants and plant preparations were selected for detailed studies. The selected plants/extracts were then subjected to the mast cell stabilization bioassay. This bioassay has been reported to be one of the important tools in detecting the substances having antiallergic activity. In this context reference may be made to “Rajashekharan M. et al, J. Drug Dev., 1989, 2(3), 179-182.” Mast cells are basophilic cells in subcutaneous and connective tissue. They are found in large numbers in mesentery of rats and contain numerous membrane bounded granules, which contain strong pharmacologically active mediators such as histamine, SRS-A, Serotonin, bradykinin etc. The role of mast cells in pathogenesis of allergic disease has been well recognized. Mast cells contain receptors for Fc fragment of IgE antibodies. Therefore, IgE antibodies formed on exposure to antigen will combine with the mast cells. On subsequent re-exposure to the same antigen, there occurs an antigen antibody reaction which will initiate mast cell de-granulation in a similar manner as that of de-granulating agents like carbachol or the compound which is the condensation product of N-methyl-p-methoxyphenylamine with formaldehyde. […]"}, "mouse paw edema": {"tested_on": "mouse paw edema", "test": "Compound 48/80 induced mouse paw edema", "type": "in vivo, mice", "conditions": "1 mg/kg mouse body weight, P<0.05", "procedure": "Compound 48/80 (Condensation product of N-methyl-p-methoxyphenylamine with formaldehyde) was used to induce mouse paw edema in mice. In this context the reference may be made to Nair A M, Tamhankar C P and Saraf M N (1995) Indian drugs, 32(6), 277-282. The animals were treated with NR-A2 at doses of 175, 225 and 275 mg/kg body weight orally 30 days prior to the test. Standard group received Ketotifen in the dose of 1 mg/kg b.w."}, "active paw anaphylaxis": {"tested_on": "active paw anaphylaxis", "test": "Active paw anaphylaxis in mice", "type": "in vivo", "conditions": "14 mg/kg body weight, P<0.05", "procedure": "Active paw anaphylaxis in mice was studied using egg albumin as the antigen adsorbed on aluminum hydroxide. In this context the reference may be made to Ghoosi R. B, Bhide M. B, (1981) Allergy Appl. Immunol., 15, 53. and Nair A. M. et al. (1995) Indian Drugs, 32(6), 277-282. The mice were dosed with NR-A2 at different doses orally in 0.5% CMC for 30 days. Prednisolone was taken as the standard. On 31st day they were sensitized with antigen, and the treatment continued. On 12^Th day after sensitization the animals were re-challenged with egg albumin in saline subcutaneously in plantar region of right hind paw while the contralateral paw received an equal volume of saline. Paw thickness was measured using pocket thickness gauge (Mitutoyo Manufacturing Co. Japan) 15 minutes after the challenge. The difference in paw thickness of right paw compared to the left paw, reflected the edema due to antigen-antibody reaction."}, "systemic anaphylaxis": {"tested_on": "systemic anaphylaxis", "test": "Compound 48/80 induced systemic anaphylaxis in rats", "type": "in vivo", "conditions": "10 mg/kg", "description": "The effect of NR-A2 in compound 48/80 (Condensation product of N-methyl-p-methoxyphenylamine with formaldehyde) induced systemic anaphylaxis was studied in rats. In this context the reference may be made to Y. M. Lee, Kim D. K, (1996) Journal of Ethnopharmacology, 54, 77-84. The animals were divided into five groups, one served as control, one standard and three groups for NR-A2. The standard (Prednisolone), NRA-2 & vehicle were given 30 days prior to intra-peritoneal administration of compound 48/80 (Condensation product of N-methyl-p-methoxyphenylamine with formaldehyde). The dose of Prednisolone was 10 mg/kg while those of NR-A2 were 150, 250, 350 mg/kg b.w. Number of deaths per group within one hour were calculated."}, "[1]": {"tested_on": "Freund's adjuvant induced paw edema", "test": "Adjuvant induced arthritis", "type": "in vivo, albino wistar rats", "conditions": "standard, rats, P<0.05", "procedure": "Freund's adjuvant is a mixture of dead mycobacterium finely ground in liquid paraffin at a concentration of 5 mg/ml. When injected in hind paw it produces an edema characterised as a bi-phasic response, which persists up to 21 days. The injection of Freund's adjuvant in rat hind paw produces conditions similar to rheumatoid arthritis, a delayed hypersensitivity reaction.\nNR-A2 was administered to albino wistar rats orally at doses of 150, 250 and 350 mg to body weight for 30 days before and 21 days after injecting Freund's adjuvant. Paw volume was measured using plethesmograph."}}}
{"smiles": "O=C([O-])c1cc(=O)c2c(OCC(O)COc3cccc4oc(C(=O)[O-])cc(=O)c34)cccc2o1.[Na+].[Na+]", "note": "[Disodiumchromoglycate]", "values": [{"measurement": "EC50 values", "setting": "mast cells; mast cell stabilization assay, screening of plant extracts (Table 1)", "value": 3.68, "unit": "µg/mL"}, {"measurement": "EC50, mast cell stabilizing activity", "setting": "mast cells; selected prototypes (Table 2)", "value": 3.66, "unit": "µg/mL"}]}
{"smiles": "CN1CCC(=C2c3ccccc3CC(=O)c3sccc32)CC1", "note": "[Ketotifen]", "values": [{"measurement": "inhibition of paw edema", "setting": "mouse paw edema", "value": 64.22, "unit": "%"}]}
{"smiles": "C[C@]12C=CC(=O)C=C1CC[C@@H]1[C@@H]2[C@@H](O)C[C@@]2(C)[C@H]1CC[C@]2(O)C(=O)CO", "note": "[Prednisolone]", "values": [{"measurement": "inhibition of paw edema", "setting": "active paw anaphylaxis", "value": 74.03, "unit": "%"}, {"measurement": "inhibition of compound 48/80 induced anaphylaxis (deaths within one hour)", "setting": "systemic anaphylaxis", "value": 62.97, "unit": "%"}, {"measurement": "inhibition of adjuvant paw edema", "setting": "[1]", "value": 95.63, "unit": "%"}]}
